In patent US20260007681A1, “INDOLE DERIVATIVES AS ESTROGEN RECEPTOR DEGRADERS” (REGENTS OF THE UNIVERSITY OF MICHIGAN, priority 2022, published 2026):
Read-outs that look alike come from different tables or passages of the source.

Assays:
CRBN/DDB1 = CRBN/DDB1 (Homo sapiens (Human), UniProt Q96SW2); assay type: binding; conditions: His tagged CRBN+DDB-DLS7+CXU4, Cy5-labeled Thalidomide probe, one hour incubation; read-out: CRBN HTRF IC50
Procedure: The binding potency was determined using H-TRF assay technology (Perkin Elmer). Compounds were serially diluted in DMSO and 0.2 μL volume was transferred to white 384-well plate.

ERα_LBD(GST) = ERα_LBD(GST) (Homo sapiens (Human), UniProt P03372); assay: IC50 measurements for binding to ERα_LBD (GST), LanthaScreen TR-FRET ERα competitive binding assay; conditions: 4 nM ERα_LBD(GST), 3 nM Fluormone ES2 Green tracer, 60 min; read-out: ERα HTRF IC50
Procedure: • 1. ERα_LBD(GST) protein: 4 nM • 2. Tb Anti-GST: 2 nM • 3. Fluormone ES2 Green tracer: 3 nM • 4. Incubation time: 60 min • 5. DMSO: 1% • 6. Assay buffer: Adding 1M DTT to Nuclear receptor Buffer K for final 5 mM DTT. • 7. ZPE: 1% DMSO • 8. HPE: 1 μM ARV_471 • 9. LanthaScreen® TR-FRET ERα Competitive Binding Assay (ThermoFisher, #A15887)
• 1) Cherry pick 2 μL 10 mM compound stock to column 1 of a 384 intermediate plate • 2) Add 18 μL DMSO to column 1 to dilute compound to 1 mM. • 3) Transfer 10 μL 1 mM compound to column 1 of a LDV plate. • 4) Add 6 μl DMSO to column 2-10 of the LDV plate. • 5) Compounds undergo 3-fold serial dilution (3 μL+6 μL) in DMSO. • 6) Transfer 120 nL compound solution to assay plate. • ZPE: 120 nL 100% DMSO
Prepare complete nuclear receptor buffer K by adding 1 M DTT to nuclear receptor buffer K for a final concentration of 5 mM DTT. Complete nuclear receptor buffer K must be prepared fresh daily. Prepare 2X protein solution using complete nuclear receptor buffer K containing 8 nM ERα_LBD(GST) and 4 nM Tb Anti-GST. Then, prepare 2× Fluormone ES2 Green tracer (6 nM) using complete nuclear receptor buffer K. Add 6 μL 2× Fluormone ES2 green tracer into a compound plate (PerkinElmer 6008289) by dragonfly with one-tips-addition. Subsequently, add 6 μL 2× protein solution into the plate. Briefly and gently mix the 384-well plate on a plate shaker and incubate at room temperature protected from light for 60 min. The plate is sealed with a cover to minimize evaporation. Read the plate at wavelengths of 520 nm and 495 nm. Calculate the TR-FRET ratio by dividing the emission signal at 520 nm by the emission signal at 495 nm. Generate a binding curve by plotting the emission ratio vs. the log [ligand]. To determine the IC50 value, fit the data using XL-fit for a sigmoidal dose-response.

ER in MCF-7 cells = ER in MCF-7 cells (Homo sapiens (Human), UniProt P03372); assay: In-cell western (ICW) ER degradation assay in MCF-7 cells (Compounds A1-A70); assay type: cell-based; conditions: MCF-7 cells, 16 hrs treatment; for DC50: ER degradation, 0.02 to 300 nM, read-out: MCF7 ICW DC50; for MCF7 ICW Dmax (%): maximal ER degradation; for Dmax: MCF7, maximal ER degradation, read-out: MCF7 ICW Dmax (%)
ER in T47D cells = ER in T47D cells (Homo sapiens (Human), UniProt P03372); assay: In-cell western (ICW) ER degradation assay in T47D cells (Compounds A1-A70); assay type: cell-based; conditions: T47D cells, 16 hrs treatment; for DC50: ER degradation, 0.02 to 300 nM; for T47D ICW Dmax (%) / Dmax: maximal ER degradation; for Dmax: read-out: T47D ICW Dmax (%)
Chain of ER in T47D cells (P03372 whole entry): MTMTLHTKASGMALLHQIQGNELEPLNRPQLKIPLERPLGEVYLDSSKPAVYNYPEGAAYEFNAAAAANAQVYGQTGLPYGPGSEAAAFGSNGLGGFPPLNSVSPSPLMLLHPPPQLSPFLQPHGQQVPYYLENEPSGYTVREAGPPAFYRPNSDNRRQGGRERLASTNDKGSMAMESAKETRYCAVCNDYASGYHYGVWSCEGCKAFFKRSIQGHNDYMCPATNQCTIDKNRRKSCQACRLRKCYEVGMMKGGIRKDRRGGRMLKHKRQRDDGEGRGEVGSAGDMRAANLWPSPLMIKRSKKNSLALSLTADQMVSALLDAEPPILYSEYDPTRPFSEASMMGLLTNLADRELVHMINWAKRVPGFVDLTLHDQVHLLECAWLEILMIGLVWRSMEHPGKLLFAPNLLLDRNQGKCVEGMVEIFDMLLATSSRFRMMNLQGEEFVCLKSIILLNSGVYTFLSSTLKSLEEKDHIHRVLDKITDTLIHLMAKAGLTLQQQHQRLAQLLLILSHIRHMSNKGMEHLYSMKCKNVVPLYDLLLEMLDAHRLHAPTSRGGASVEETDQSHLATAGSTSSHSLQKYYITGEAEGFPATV

Chain of CRBN/DDB1 (Q96SW2 whole entry): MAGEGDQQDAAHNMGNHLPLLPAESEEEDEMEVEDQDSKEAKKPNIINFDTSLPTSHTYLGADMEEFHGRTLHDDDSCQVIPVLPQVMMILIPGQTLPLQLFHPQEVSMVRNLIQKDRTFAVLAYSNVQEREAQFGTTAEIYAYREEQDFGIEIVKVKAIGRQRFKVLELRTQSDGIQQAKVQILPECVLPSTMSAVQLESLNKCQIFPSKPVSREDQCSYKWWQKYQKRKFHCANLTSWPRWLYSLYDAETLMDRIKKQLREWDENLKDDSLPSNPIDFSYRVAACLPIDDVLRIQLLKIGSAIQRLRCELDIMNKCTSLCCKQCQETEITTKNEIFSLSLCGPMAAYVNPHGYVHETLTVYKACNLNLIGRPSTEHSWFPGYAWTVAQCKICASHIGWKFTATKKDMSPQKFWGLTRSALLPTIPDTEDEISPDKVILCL
Chain of CRBN/DDB1 (Q16531 whole entry partner): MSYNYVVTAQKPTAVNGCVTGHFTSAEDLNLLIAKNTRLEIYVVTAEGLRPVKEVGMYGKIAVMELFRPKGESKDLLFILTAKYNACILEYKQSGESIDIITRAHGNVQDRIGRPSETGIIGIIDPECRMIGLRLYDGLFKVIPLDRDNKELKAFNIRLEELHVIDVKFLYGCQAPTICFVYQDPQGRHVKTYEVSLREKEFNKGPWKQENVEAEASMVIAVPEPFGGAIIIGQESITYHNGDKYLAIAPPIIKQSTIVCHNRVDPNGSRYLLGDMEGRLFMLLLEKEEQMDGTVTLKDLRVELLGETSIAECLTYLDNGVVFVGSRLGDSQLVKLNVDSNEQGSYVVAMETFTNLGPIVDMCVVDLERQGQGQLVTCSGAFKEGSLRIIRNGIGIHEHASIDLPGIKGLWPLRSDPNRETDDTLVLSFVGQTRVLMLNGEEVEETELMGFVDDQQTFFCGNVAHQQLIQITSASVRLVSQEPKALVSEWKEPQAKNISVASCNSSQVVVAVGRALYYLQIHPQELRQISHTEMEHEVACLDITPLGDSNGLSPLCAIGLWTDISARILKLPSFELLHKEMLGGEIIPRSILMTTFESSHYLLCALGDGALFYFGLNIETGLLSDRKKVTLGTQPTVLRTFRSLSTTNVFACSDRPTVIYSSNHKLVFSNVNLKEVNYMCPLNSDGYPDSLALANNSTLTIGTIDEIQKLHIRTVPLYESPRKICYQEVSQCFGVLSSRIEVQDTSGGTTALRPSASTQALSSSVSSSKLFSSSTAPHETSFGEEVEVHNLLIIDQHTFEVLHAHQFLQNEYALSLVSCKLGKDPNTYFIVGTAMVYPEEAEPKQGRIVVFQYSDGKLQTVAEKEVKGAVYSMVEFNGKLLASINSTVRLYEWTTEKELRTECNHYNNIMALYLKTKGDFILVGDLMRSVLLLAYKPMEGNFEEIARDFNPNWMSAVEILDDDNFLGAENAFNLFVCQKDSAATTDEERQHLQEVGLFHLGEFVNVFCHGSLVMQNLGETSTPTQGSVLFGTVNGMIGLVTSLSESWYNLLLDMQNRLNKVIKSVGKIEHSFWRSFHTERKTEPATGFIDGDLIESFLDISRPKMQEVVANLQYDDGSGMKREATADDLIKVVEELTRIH
Chain of ER in MCF-7 cells (P03372 whole entry): as the sequence (P03372 whole entry) above
Chain of ERα_LBD(GST) (P03372 311-547): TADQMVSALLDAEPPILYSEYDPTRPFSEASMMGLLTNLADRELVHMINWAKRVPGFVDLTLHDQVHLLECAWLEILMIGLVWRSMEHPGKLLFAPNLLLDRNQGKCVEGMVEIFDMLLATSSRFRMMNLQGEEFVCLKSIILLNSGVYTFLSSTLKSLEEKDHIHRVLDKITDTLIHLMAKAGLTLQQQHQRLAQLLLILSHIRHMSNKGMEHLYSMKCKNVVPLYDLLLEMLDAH

Compound | IC50 (CRBN/DDB1) [nM] | IC50 (ERα_LBD(GST)) [nM] | DC50 (ER in MCF-7 cells) [nM] | MCF7 ICW Dmax (%) (ER in MCF-7 cells) | DC50 (ER in T47D cells) [nM] | T47D ICW Dmax (%) (ER in T47D cells) | Dmax (ER in MCF-7 cells) [%] | Dmax (ER in T47D cells) [%] | Dmax (ER in T47D cells; T47D) [%]
COc1cc(N2CCC(CN3CCN4c5cc6c(cc5OC[C@@H]4C3)C(=O)N([C@H]3CCC(=O)NC3=O)C6)CC2)ccc1[C@@H]1c2[nH]c3ccccc3c2C[C@@H](C)N1CC(F)F [Compound A28, (S)-3-((S)-3-((1-(4-((1R,3R)-2-(2,2-difluoroethyl)-3-methyl-2,3,4,9-tetrahydro-1H-pyrido[3,4-b]indol-1-yl)-3-methoxyphenyl)piperidin-4-yl)methyl)-8-oxo-1,2,3,4,4a,5,8,10-octahydro-9H-pyrazino[1′,2′:4,5][1,4]oxazino[2,3-f]isoindol-9-yl)piperidine-2,6-dione] | 50 to 500 | < 10 | < 1 | C (“C”: 25%-50%) | < 1 | B (“B”: >50% and <75%) |  |  | 
COc1cc(N2CCC(CN3CCN4c5cc6c(cc5OC[C@@H]4C3)C(=O)N([C@H]3CCC(=O)NC3=O)C6)CC2)ccc1[C@@H]1c2[nH]c3ccccc3c2C[C@@H](C)N1CC(F)F [Compound A29, (S)-3-((S)-3-((1-(4-((1R,3R)-2-(2,2-difluoroethyl)-3-methyl-2,3,4,9-tetrahydro-1H-pyrido[3,4-b]indol-1-yl)-3-methoxyphenyl)piperidin-4-yl)methyl)-8-oxo-1,2,3,4,4a,5,8,10-octahydro-9H-pyrazino[1′,2′:4,5][1,4]oxazino[2,3-f]isoindol-9-yl)piperidine-2,6-dione] | 500 to 5000 | < 10 | < 1 | B (“B”: >50% and <75%) | < 1 | A (“A”: >=75%) |  |  | 
C[C@@H]1Cc2c([nH]c3ccccc23)[C@@H](c2cnc(N3CCC(CN4CCC5(CC4)COc4cc6c(cc45)CN(C4CCC(=O)NC4=O)C6=O)CC3)nc2)N1CC(F)(F)CO (stereo partly drawn) [Compound A36, 3-(1′-((1-(5-((1R,3R)-2-(2,2-difluoro-3-hydroxypropyl)-3-methyl-2,3,4,9-tetrahydro-1H-pyrido[3,4-b]indol-1-yl)pyrimidin-2-yl)piperidin-4-yl)methyl)-7-oxo-5,7-dihydro-2H,6H-spiro[furo[2,3-f]isoindole-3,4′-piperidin]-6-yl) piperidine-2,6-dione] | 50 to 500 | < 10 | 1 to 10 |  | < 1 |  | 25 to 50 | 50 to 75 | 
COc1cc(N2CCC(CN3CCN4c5ccc6c(c5OC[C@H]4C3)CN([C@@H]3CCC(=O)NC3=O)C6=O)CC2)ccc1[C@@H]1c2[nH]c3ccccc3c2C[C@@H](C)N1CC(F)F [Compound A37, (R)-3-((R)-7-((1-(4-((1R,3R)-2-(2,2-difluoroethyl)-3-methyl-2,3,4,9-tetrahydro-1H-pyrido[3,4-b]indol-1-yl)-3-methoxyphenyl)piperidin-4-yl)methyl)-1-oxo-1,3,5,5a,6,7,8,9-octahydro-2H-pyrazino[1′,2′:4,5][1,4]oxazino[2,3-e]isoindol-2-yl)piperidine-2,6-dione] | > 5000 | < 10 | < 1 |  | < 1 |  | 50 to 75 |  | > 75
COc1cc(N2CCC(CN3CCN4c5ccc6c(c5OC[C@@H]4C3)CN([C@H]3CCC(=O)NC3=O)C6=O)CC2)ccc1[C@@H]1c2[nH]c3ccccc3c2C[C@@H](C)N1CC(F)F [Compound A45, (S)-3-((S)-7-((1-(4-((1R,3R)-2-(2,2-difluoroethyl)-3-methyl-2,3,4,9-tetrahydro-1H-pyrido[3,4-b]indol-1-yl)-3-methoxyphenyl)piperidin-4-yl)methyl)-1-oxo-1,3,5,5a,6,7,8,9-octahydro-2H-pyrazino[1′,2′:4,5][1,4]oxazino[2,3-e]isoindol-2-yl)piperidine-2,6-dione] | > 5000 | < 10 | < 1 | A (“A”: >=75%) | < 1 |  |  |  | > 75
COc1cc(N2CCC(CN3CCN(c4ccc(C(=O)N[C@H]5CCC(=O)NC5=O)nc4)CC3)CC2)ccc1[C@@H]1c2[nH]c3ccccc3c2C[C@@H](C)N1CC(F)F [Compound A55, 5-(4-((1-(4-((1R,3R)-2-(2,2-difluoroethyl)-3-methyl-2,3,4,9-tetrahydro-1H-pyrido[3,4-b]indol-1-yl)-3-methoxyphenyl)piperidin-4-yl)methyl)piperazin-1-yl)-N—((S)-2,6-dioxopiperidin-3-yl)picolinamide] | > 5000 | < 10 | < 1 |  |  |  |  |  | 
C[C@@H]1Cc2c([nH]c3ccccc23)[C@@H](c2cnc(N3CCC4(CC3)C[C@@H](CN3CCN5c6ccc(C(=O)N[C@H]7CCC(=O)NC7=O)nc6OC[C@H]5C3)CO4)nc2)N1CC(F)F [Compound A63, (4aR)-3-((8-(5-((1R,3R)-2-(2,2-difluoroethyl)-3-methyl-2,3,4,9-tetrahydro-1H-pyrido[3,4-b]indol-1-yl)pyrimidin-2-yl)-1-oxa-8-azaspiro[4.5]decan-3-yl)methyl)-N—((S)-2,6-dioxopiperidin-3-yl)-1,2,3,4,4a,5-hexahydropyrazino[1,2-d]pyrido[2,3-b][1,4]oxazine-8-carboxamide] | 500 to 5000 | ≥ 10 | 1 to 10 |  | 1 to 10 |  | 50 to 75 |  | 50 to 75
C[C@H]1Cc2c([nH]c3ccccc23)[C@H](c2cnc(N3CCC4(CC3)C[C@H](CN3CCN5c6cc7c(cc6OC[C@@H]5C3)C(=O)N([C@@H]3CCC(=O)NC3=O)C7)CO4)nc2)N1CC(F)F [Compound A69, (R)-3-((S)-3-(((R)-8-(5-((1S,3S)-2-(2,2-difluoroethyl)-3-methyl-2,3,4,9-tetrahydro-1H-pyrido[3,4-b]indol-1-yl)pyrimidin-2-yl)-1-oxa-8-azaspiro[4.5]decan-3-yl)methyl)-8-oxo-1,2,3,4,4a,5,8,10-octahydro-9H-pyrazino[1′,2′:4,5][1,4]oxazino[2,3-f]isoindol-9-yl)piperidine-2,6-dione] | 50 to 500 | ≥ 10 | < 1 |  | < 1 |  | > 75 |  | > 75
